# Measurements reported in article PMC7901699, “Challenging inflammatory process at molecular, cellular and in vivo levels via some new pyrazolyl thiazolones” (Journal of Enzyme Inhibition and Medicinal Chemistry, 2021).
# Entries after “also recorded” stand apart in the source; their conditions may differ.
# Key:
# human recombinant COX-2 = biological target: T1, human recombinant COX-2 (Homo sapiens, UniProt P35354); experiment: In vitro COX-2 inhibition assay (colorimetric COX inhibitor screening kit, Cayman); type: biochemical; settings: for SI (COX-1/ COX-2): IC50 (COX-1)/IC50 (COX-2); for IC50: mean of three determinations
# T1 construct: purchased Cayman Chemicals Inc. 560131
# T1 sequence (P35354 18-604): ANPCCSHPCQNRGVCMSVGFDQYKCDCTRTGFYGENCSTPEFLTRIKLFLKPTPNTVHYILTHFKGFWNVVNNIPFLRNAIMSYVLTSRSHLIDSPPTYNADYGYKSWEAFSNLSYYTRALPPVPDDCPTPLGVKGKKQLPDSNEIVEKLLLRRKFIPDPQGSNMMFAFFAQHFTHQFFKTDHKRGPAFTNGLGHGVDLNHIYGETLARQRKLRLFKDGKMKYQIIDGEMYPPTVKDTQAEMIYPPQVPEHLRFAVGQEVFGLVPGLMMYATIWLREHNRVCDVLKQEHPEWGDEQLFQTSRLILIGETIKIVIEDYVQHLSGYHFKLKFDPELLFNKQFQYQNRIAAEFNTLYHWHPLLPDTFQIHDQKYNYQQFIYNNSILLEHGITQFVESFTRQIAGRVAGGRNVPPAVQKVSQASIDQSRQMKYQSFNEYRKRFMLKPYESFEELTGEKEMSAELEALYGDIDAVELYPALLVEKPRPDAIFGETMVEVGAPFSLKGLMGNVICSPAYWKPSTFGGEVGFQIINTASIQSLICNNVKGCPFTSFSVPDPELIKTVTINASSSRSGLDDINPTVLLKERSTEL
# Procedure: (§1) Both assays were carried out in compliance with the manufacturer’s instructions and in accordance to prior studies[29]^,[33].
# (§2) IC50 values (μM) and selectivity indices (SI) were calculated.
# 15-LOX = biological target: T2, 15-LOX (Glycine max, UniProt P08170); experiment: In vitro 15-LOX inhibition assay (lipoxygenase inhibitor screening kit, Cayman); type: biochemical; settings: for IC50: mean of three determinations
# T2 construct: purchased Cayman chemicals 760700
# T2 sequence (P08170 1-839): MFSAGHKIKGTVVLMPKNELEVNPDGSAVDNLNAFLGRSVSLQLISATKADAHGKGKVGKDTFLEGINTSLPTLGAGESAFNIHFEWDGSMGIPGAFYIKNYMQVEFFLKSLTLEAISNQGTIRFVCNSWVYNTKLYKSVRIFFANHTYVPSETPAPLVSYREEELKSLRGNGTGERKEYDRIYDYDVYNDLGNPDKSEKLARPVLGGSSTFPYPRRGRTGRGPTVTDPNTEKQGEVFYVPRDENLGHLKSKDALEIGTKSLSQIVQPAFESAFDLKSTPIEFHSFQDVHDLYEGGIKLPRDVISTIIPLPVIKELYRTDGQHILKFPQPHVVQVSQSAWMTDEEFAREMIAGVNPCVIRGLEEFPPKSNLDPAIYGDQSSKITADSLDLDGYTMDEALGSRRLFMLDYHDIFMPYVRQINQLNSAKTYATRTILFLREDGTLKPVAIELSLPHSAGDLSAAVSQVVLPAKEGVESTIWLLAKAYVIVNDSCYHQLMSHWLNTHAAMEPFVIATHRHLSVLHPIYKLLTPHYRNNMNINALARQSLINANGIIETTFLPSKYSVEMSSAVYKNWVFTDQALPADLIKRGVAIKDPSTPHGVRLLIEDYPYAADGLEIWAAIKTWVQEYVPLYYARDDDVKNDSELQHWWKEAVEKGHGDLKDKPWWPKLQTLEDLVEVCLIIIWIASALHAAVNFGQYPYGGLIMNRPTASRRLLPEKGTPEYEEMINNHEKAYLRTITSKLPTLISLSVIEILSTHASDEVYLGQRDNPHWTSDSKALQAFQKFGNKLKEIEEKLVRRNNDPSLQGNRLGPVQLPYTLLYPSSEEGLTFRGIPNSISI
# Procedure: as §1, §2
# ovine COX-1 = biological target: T3, ovine COX-1 (Ovis aries, UniProt P05979); experiment: In vitro COX-1 inhibition assay (colorimetric COX inhibitor screening kit, Cayman); type: biochemical; settings: mean of three determinations
# T3 construct: purchased Cayman Chemicals Inc. 560131
# T3 sequence (P05979 25-600): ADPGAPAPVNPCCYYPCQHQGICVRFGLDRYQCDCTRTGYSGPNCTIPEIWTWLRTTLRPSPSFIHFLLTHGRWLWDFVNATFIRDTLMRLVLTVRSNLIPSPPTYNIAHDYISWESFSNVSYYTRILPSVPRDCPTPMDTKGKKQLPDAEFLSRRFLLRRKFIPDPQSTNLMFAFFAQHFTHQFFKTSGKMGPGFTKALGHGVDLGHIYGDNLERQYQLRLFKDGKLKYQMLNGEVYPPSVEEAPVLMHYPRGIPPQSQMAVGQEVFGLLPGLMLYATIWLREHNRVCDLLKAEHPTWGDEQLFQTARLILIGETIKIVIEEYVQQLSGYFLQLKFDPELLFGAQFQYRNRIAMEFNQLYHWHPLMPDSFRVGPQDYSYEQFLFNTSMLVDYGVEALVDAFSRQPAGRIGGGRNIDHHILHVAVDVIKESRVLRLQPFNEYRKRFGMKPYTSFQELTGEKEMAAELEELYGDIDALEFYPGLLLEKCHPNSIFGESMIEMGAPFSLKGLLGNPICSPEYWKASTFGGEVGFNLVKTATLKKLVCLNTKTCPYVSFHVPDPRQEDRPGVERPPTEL
# Procedure: as §1, §2
# [1] = tested on: cotton pellet-induced granuloma; experiment: Cotton pellet-induced granuloma assay (chronic inflammation model); settings: oral 5 mg/kg daily, pellets excised on 8th day, vs diclofenac sodium and celecoxib
# THP-1 cells = experiment: Monocyte-to-macrophage differentiation assay, M1 polarisation (PMA then LPS); type: cell-based, human; settings: Homo sapiens, THP-1; 6 h pre-incubation; PMA 25 nM 24 h then LPS 100 ng/ml 72 h; MTS; read-out: IC50 inhibition of THP-1 monocyte differentiation into M1 macrophages
# Procedure: Monocytes were cultured and differentiated as described previously. THP-1 cells (human acute monocytic leukaemia lineage, American Type Culture Collection, Manassas, VA) were seeded at a density of 20 × 10^5 cells/ml. A set of cells were exposed to 25 nM of phorbol myristate-acetate (PMA, Calbiochem, Darmstadt, Germany) for 24 h to drive differentiation. Another set was similarly treated with PMA followed by 100 ng/ml of lipopolysaccharide (LPS, invivogen, San Diego, CA, USA) for 72 h. After incubation, the supernatant was aspirated and the density of the adherent cells was estimated using MTS colorimetric cell viability kit (Abcam, Cambridge, UK). The inhibitory actions of different compounds on the differentiation process were evaluated by pre-incubation with different concentrations of each compound for 6 h. Cell viability after treatment was normalised to the reading after PMA exposure following a 6-h incubation with DMSO. All experiments were conducted in triplicates. A positive control for the effect of COX1/COX2 inhibition on monocyte-to-macrophage differentiation was obtained by treatment with diclofenac. IC50 values for each compound were determined by non-linear regression as the best fit values of the log [inhibitor] vs. response curve using GraphPad Prism software.
# IL-1β = IL-1β protein expression by Western blotting; type: cell-based, human; settings: 100 μM compound; PMA 24 h then LPS 72 h; normalised to GAPDH
# Procedure: THP-1 monocytes were exposed to 100 μM of the test compounds, activated with 25 nM PMA for 24 h followed by 100 ng/ml LPS for 72 h. At the end of the incubation period, cells were harvested, proteins were extracted and SDS-PAGE electrophoresis, blotting, and antibody probing were conducted as described previously. Primary rabbit polyclonal antibodies to IL-1β, procaspase-3, and GAPDH were obtained from Abcam (Cambridge, UK). Clarity Western ECL substrate (BioRad, Hercules, CA, USA) was used to obtain a chemiluminescence signal captured by a Chemidoc imaging system (BioRad, Hercules, CA, USA). Band density was estimated using ImageJ software (National Institutes of Health, Bethesda, MD) and normalised to the GAPDH band density as a loading control.
# rat stomach = experiment: Gastric ulcerogenic activity and histopathological examination; settings: stomach removed on 8th day of administration, 5 mg/kg oral
# [2] = tested on: formalin-induced rat paw oedema; experiment: Formalin-induced paw oedema test (acute inflammation model); type: in vivo, Wistar rats; settings: oral 5 mg/kg once daily for seven days; oedema 4 h after formalin; vs diclofenac sodium and celecoxib 5 mg/kg
# Procedure: A freshly prepared 5% formalin solution (prepared from 37% formaldehyde and saline (Merck, Germany)) was used as a phlogistic agent. Test and reference compounds (5 mg/kg body weight) were dissolved in DMSO and given orally with gastric gavage once per day for seven consecutive days, whereas DMSO was administered to the control group. On the 8th day, the initial paw volume was determined by a Vernier calliper. Then, a subcutaneous injection of 40 μl formalin was introduced into the right hind paw of all groups under light ether anaesthesia. The paw volume was measured 4 h after the formalin injection and the oedema volume was calculated by the difference in paw volume before and 4 h after the formalin injection. The percentage inhibition of oedema (or % protection against inflammation) was calculated for each compound as previously reported[34]^,[35].
IC50 (15-LOX),"15-LOX inhibition, times the activity of quercetin (15-LOX; relative to quercetin)",SMILES,SI (COX-1/ COX-2) (human recombinant COX-2),IC50 (human recombinant COX-2),IC50 (ovine COX-1),Inhibition of cotton pellet granuloma weight (in words) ([1]; 5 mg/kg),IC50 (THP-1 cells),IL-1β expression in PMA/LPS-challenged THP-1 (IL-1β),Gross observation of isolated rat stomachs (rat stomach; 5 mg/kg),Inhibition of formalin-induced rat paw oedema (in words) [2],Inhibition of cotton pellet granuloma weight (in words) [1],15-LOX inhibitory activity as % of the activity of quercetin (15-LOX; relative to quercetin),Gross observation of isolated rat stomachs (rat stomach),"Histopathological examination of stomach gastric layers (rat stomach; H&E, 5 mg/kg)"
2.85 µM,–,"Cc1ccc(-c2nn(-c3ccccc3)cc2/C=C2\SC(N3CCOCC3)=NC2=O)cc1 [Compound 6, (Z)-2-morpholino-5-((1-phenyl-3-(p-tolyl)-1H-pyrazol-4-yl)methylene)thiazol-4(5H)-one]",69,0.18 µM,12.5 µM,–,–,–,–,–,–,–,–,–
1.96 µM,1.7 times,"Cc1nn(-c2ccccc2)c(Cl)c1/C=C1\SC(N2CCCCC2)=NC1=O [Compound 1, (Z)-5-((5-chloro-3-methyl-1-phenyl-1H-pyrazol-4-yl)methylene)-2-(piperidin-1-yl)thiazol-4(5H)-one]",59,0.11 µM,6.56 µM,–,–,–,–,–,–,–,–,–
2.54 µM,–,"O=C1N=C(N2CCCCC2)S/C1=C\c1cn(-c2ccccc2)nc1-c1ccccc1 [Compound 3, (Z)-5-((1,3-diphenyl-1H-pyrazol-4-yl)methylene)-2-(piperidin-1-yl)thiazol-4(5H)-one]",41,0.19 µM,7.86 µM,–,–,–,–,–,–,–,–,–
4.23 µM,–,"Cc1ccc(-c2nn(-c3ccccc3)cc2/C=C2\SC(N3CCCCC3)=NC2=O)cc1 [Compound 5, (Z)-5-((1-phenyl-3-(p-tolyl)-1H-pyrazol-4-yl)methylene)-2-(piperidin-1-yl)thiazol-4(5H)-one]",27,0.34 µM,9.23 µM,–,–,–,–,–,–,–,–,–

# Continued, molecule first:
SMILES,IC50 (15-LOX),"15-LOX inhibition, times the activity of quercetin (15-LOX; relative to quercetin)",SI (COX-1/ COX-2) (human recombinant COX-2),IC50 (human recombinant COX-2),IC50 (ovine COX-1),Inhibition of cotton pellet granuloma weight (in words) ([1]; 5 mg/kg),IC50 (THP-1 cells),IL-1β expression in PMA/LPS-challenged THP-1 (IL-1β),Gross observation of isolated rat stomachs (rat stomach; 5 mg/kg),Inhibition of formalin-induced rat paw oedema (in words) [2],Inhibition of cotton pellet granuloma weight (in words) [1],15-LOX inhibitory activity as % of the activity of quercetin (15-LOX; relative to quercetin),Gross observation of isolated rat stomachs (rat stomach),"Histopathological examination of stomach gastric layers (rat stomach; H&E, 5 mg/kg)"
"Cc1ccc(Cl)c(Nc2ccccc2C(=O)O)c1Cl [Meclofenamate Na, reference compound]",5.64 µM,–,–,–,–,–,–,–,–,–,–,–,–,–
"COc1ccc(-c2nn(-c3ccccc3)cc2/C=C2\SC(N3CCOCC3)=NC2=O)cc1 [Compound 8, (Z)-5-((3-(4-methoxyphenyl)-1-phenyl-1H-pyrazol-4-yl)methylene)-2-morpholinothiazol-4(5H)-one]",4.64 µM,–,113,0.11 µM,12.4 µM,"superior anti-inflammatory activity, when compared to diclofenac and celecoxib; also recorded: increased inhibition of granuloma weight in comparison to both celecoxib and diclofenac",347 µM,attenuating IL-1β production,–,–,–,–,–,–
"Cc1nn(-c2ccccc2)c(Cl)c1/C=C1\SC(N2CCOCC2)=NC1=O [Compound 2, (Z)-5-((5-chloro-3-methyl-1-phenyl-1H-pyrazol-4-yl)methylene)-2-morpholinothiazol-4(5H)-one]",2.42 µM,–,90,0.09 µM,8.14 µM,"superior anti-inflammatory activity, when compared to diclofenac and celecoxib; also recorded: increased inhibition of granuloma weight in comparison to both celecoxib and diclofenac",–,–,normal texture,as effective as either diclofenac or celecoxib,–,–,–,–
"O=C1N=C(N2CCCCC2)S/C1=C\c1cn(-c2ccccc2)nc1-c1ccc(Br)cc1 [Compound 9, (Z)-5-((3-(4-bromophenyl)-1-phenyl-1H-pyrazol-4-yl)methylene)-2-(piperidin-1-yl)thiazol-4(5H)-one]",5.64 µM,–,107,0.13 µM,14 µM,–,–,–,–,as effective as either diclofenac or celecoxib,only superior to celecoxib,59%,–,–
"O=C1N=C(N2CCOCC2)S/C1=C\c1cn(-c2ccccc2)nc1-c1ccc(Br)cc1 [Compound 10, (Z)-5-((3-(4-bromophenyl)-1-phenyl-1H-pyrazol-4-yl)methylene)-2-morpholinothiazol-4(5H)-one]",4.52 µM,–,103,0.11 µM,11.3 µM,–,–,–,–,as effective as either diclofenac or celecoxib,only superior to celecoxib,74%,variable levels of hyperaemia without gross ulceration,both edoema and inflammatory changes in stomach mucosal surface
